{
  "source": "patent US20150307938A1",
  "about": "“METHOD TO IDENTIFY A NOVEL CLASS OF IMMUNOLOGIC ADJUVANTS” (Lancell, L.L.C., priority 2011, published 2015)",
  "tested_on": "PR8",
  "parameters": "species or system mice",
  "conditions": "mouse, in vivo",
  "data": [
    {"smiles": "CCCCOC(=O)c1ccccc1C(=O)OCCCC", "note": "[DBP, dibutylphthalate]", "values": [
      {"measurement": "survival of a lethal dose of virus", "value": "mice survived a lethal dose of virus"}
    ]}
  ]
}
